Test results: patent US7173060B2, “Oxime derivatives and their use as pharmaceutically active agents” (Hoffmann-La Roche Inc., priority 2003, dated 2007)

test system: histone deacetylase (HDAC); test: cellular acetylation assay (histone acetylation ELISA in PC3 cells); type: cell-based; settings: PC3 human prostate carcinoma cells, compound 1 μM, 24 h incubation, ELISA with antibodies against acetylated histone H3 or H4
Method: Therein acetylation of histones is monitored in PC3 cells. High acetylation correlates with inhibition of histone deacetylase by compounds. Cell viability is monitored in parallel to estimate the cytotoxicity of compounds.
PC3 cells, a human prostate carcinoma cell line, are seeded as 1800 cells per well of a 384-well microtiterplate in RPMI 1640 (including 5% FCS, 2 mM glutamine and pen/strep). After 48 h at 37° C. pre-diluted compounds are added to a final concentration of 1 uM. Compounds are pre-diluted in dimethyl sulfoxide (DMSO) resulting in a final concentration of DMSO of 0.5% per well.
After 24 h incubation cell viability is determined by adding cell proliferation reagent WST-1 (Roche Molecular Biochemicals). Another 60 min later the optical density (OD) is measured (450 nm versus 690 nm).
After measurement the cell layer is prepared for the ELISA reaction. Medium is aspirated and cells are fixed in ethanol at −20° C. for 60 min. After washing with PBS/Tween the blocking solution (PBS/5% FCS/Tween) is added and the cell layer is washed again. Antibodies against acetylated histone H3 or H4 (rabbit polyklonal IgG, Upstate Biotechnologie) are added at a dilution of 1:200 for 60 min at 37° C. As a second antibody goat anti rabbit IgG (H+L) humanIgG adsorbed-HRP conjugate (Dako) is used (1:2000 diluted). Cells are washed 3 times and the peroxidase substrate ABTS is allowed to react for 30–60 min at 37° C. The OD is measured at 405 nm.
The percentage of acetylation is calculated after substraction of blank O.D.s: […]

SMILES | cell acetylation (PC3, 1 μM) [% of control]
Nc1ccccc1NC(=O)c1ccc(CON=Cc2ccc(OC(F)(F)F)cc2)s1 [4–17, 5-(4-Trifluoromethoxy-benzylideneaminooxymethyl)-thiophene-2-carboxylic acid (2-amino-phenyl)-amide] | 127 % of control
Nc1ccccc1NC(=O)c1ccc(CON=Cc2ccccc2)s1 [4–6, 5-Benzylideneaminooxymethyl-thiophene-2-carboxylic acid (2-amino-phenyl)-amide] | 180 % of control
CC(=O)Nc1ccc(C(=O)Nc2ccccc2N)cc1 [4-acetylamino-N-(2-amino-phenyl)-benzamide, reference compound] | 152 % of control
Nc1ccccc1NC(=O)c1ccc(CON=Cc2cccnc2)s1 [4–21, 5-(Pyridin-3-ylmethyleneaminooxymethyl)-thiophene-2-carboxylic acid (2-amino-phenyl)-amide] | 135 % of control
COc1ccc(C=NOCc2ccc(C(=O)Nc3ccccc3N)s2)cc1OC [4–12, 5-(3,4-Dimethoxy-benzylideneaminooxymethyl)-thiophene-2-carboxylic acid (2-amino-phenyl)-amide] | 137 % of control
Nc1ccccc1NC(=O)c1ccc(CON=C2Cc3ccccc3C2)s1 [4–7, 5-(Indan-2-ylideneaminooxymethyl)-thiophene-2-carboxylic acid (2-amino-phenyl)-amide] | 182 % of control
COc1ccc(C(C)=NOCc2ccc(C(=O)Nc3ccccc3N)s2)cc1OC [4–9, 5-[1-(3,4-Dimethoxy-phenyl)-ethylideneaminooxymethyl]-thiophene-2-carboxylic acid (2-amino-phenyl)-amide] | 158 % of control
Nc1ccccc1NC(=O)c1ccc(CON=Cc2ccc3c(c2)OCCO3)s1 [Example 3, 5-(2,3-Dihydro-benzo[1,4]dioxin-6-ylmethyleneaminooxymethyl)-thiophene-2-carboxylic acid (2-amino-phenyl)-amide] | 116 % of control
